Results published in patent US20250154288A1, “CYTOTOXICITY TARGETING CHIMERAS FOR C-C CHEMOKINE RECEPTOR 2-EXPRESSING CELLS” (GLAXOSMITHKLINE INTELLECTUAL PROPERTY DEVELOPMENT LIMITED, priority 2022, published 2025).
Where a name gives a salt, the structure may show the parent alone.

What was measured:
[1] = Blood drug concentration analysis (LC-MS/MS) in In Vivo Depletion Assay; settings: human CCR2 (hCCR2) knock-in, 057 background, mouse, whole blood, hCCR2 knock-in mice, IV 0.1 mpk compound + 10 mpk anti-cotinine antibody, 48 hours post-dose, read-out: Exposure of Compound of Formula (I) 48 hours post-dose
Protocol: Human CCR2 (hCCR2) knock-in mice (057 background) were dosed intravenously with a PBS solution containing a compound of Formula (I) to measure depletion of CCR2 expressing cells in peripheral blood. Peripheral blood from IV dosed mice was also analyzed to determine PK properties of the ARM compounds of Formula (I).
Administration to Animal: Solution formulation of antibody and compound of Formula (I) was injected (bolus injection) to the restrained mouse in the right/left lateral tail vein. Animals were dosed with 0.1 milligram per kilogram (mpk) of the compound of Formula (I) and 10 mpk of the anti-cotinine antibody.
Collection of Blood for PK: Blood was collected at time points 0.25 hour, 2 hours, and […] following administration (50 μL/time point) through retro-orbital bleeding under mild isoflurane anesthesia.
Terminal bleeding at end of experiment (48 hr): Approximately 250 μL of blood in K2EDTA tube and approximately 250 μL of blood in SST (serum separation tube) was collected from each mouse through retro-orbital bleeding under deep isoflurane anesthesia. After bleeding, each mouse was sacrificed by cervical dislocation. The blood distribution at termination was determined as follows: • For PK: 50 μL of K2EDTA blood was transferred to another tube for PK • Flow cytometry: Remaining blood (˜200 μL) was used for flow cytometry analysis. • For serum collection: serum separator tubes (BD) were centrifuged at 4° C., 5000 rpm for 15 minutes. Approximately 100 μL serum was separated and stored at −80° C. for further usage. • Blood drug concentration: Samples collected at the various timepoints (0.25 hr, 2 hr, 24 and 48 hr) were analyzed to determine blood drug concentration.
Drug concentration in blood samples was determined by an LC-MS/MS-based bioanalytical method developed at Syngene. Samples were analyzed on Q-Trap, API-5500 LC-MS/MS system coupled with Exion UHPLC system from SCIEX, USA operated in multiple reaction monitoring mode employing electrospray ionization technique in positive polarity. Analyte and internal standard peaks were resolved on Synergi Polar, 75×2.0 mm, 4μ column using mobile phase 10 mM Ammonium acetate in Milli-Q water as phase A and 0.1% Formic acid in acetonitrile as Phase B. Gradient elution was performed with initial composition 95% Phase A at 0.0 min, holding it for 0.2 minutes, ramping to 5% by 1.0 minute, keeping the same for next 0.5 minutes and coming back to 95% by 1.6 minutes. The total run time was 2 minutes.
Working dilutions for calibration curve and quality control standards were prepared by serially diluting 20 mg/mL stock solution with DMSO. Spiked concentrations for calibration curve in the whole blood ranged from 1 ng/mL to 1000 ng/mL. The working solution of internal standard (Verapamil, 25 ng/mL) was prepared in acetonitrile. 10 μL of the study sample and calibration curve, quality control, and blank whole blood samples were aliquoted in 96 deep well plates for processing. 10 μL of Milli-Q water was added to all the samples and briefly vortexed to initiate complete hemolysis. 10 μL of 20 mM dithiothreitol (OTT) was added to all the samples and incubated for 30 minutes at 37° C. The addition of DTT enhanced the recovery of ARM compounds of Formula (I) from the biological matrix. 300 μL of working internal standard solution was added to all samples except total blank and wash samples, where 300 μL of acetonitrile was added. All the samples were vortex mixed for 5 minutes, followed by centrifugation at 4000 rpm for 10 minutes at 4° C. Supernatants were transferred to the loading plate and injected 3 μL to LC-MS/MS system for analysis. The results are shown below in Table 4 and are reported as compound exposure 48 hours post-dose

[2] = target: T1, CHOK1 cells engineered to overexpress human CCR2 (Homo sapiens, UniProt P41597); assay: Antibody Dependent Cellular Cytotoxicity (ADCC) Reporter Assay; assay type: cell-based; settings: with anti-cotinine antibody (human IgG1 Fc, S239D/I332E); Jurkat FcγRIIIa NFAT-luciferase reporter cells; average if several runs; read-out: ADCC Reporter Assay pEC50 (converted)
T1 construct: expressed in transfected cells; host or cells: CHOK1
In short: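 CHOK1-hCCR2 target cells co-incubated ~12-18 h with compound (1 pM–10 μM), anti-cotinine rabbit/human IgG1 S239D/I332E antibody (0.01–200 μg/mL) and Jurkat FcγRIIIa NFAT-luciferase reporter cells. Luminescence signal:background versus no-compound wells; EC50 from four-parameter fit, reported as pEC50, averaged over runs.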

In the case of CO[C@@H]1COCC[C@@H]1N[C@@H]1CC[C@@](C(=O)N2Cc3cc(C(F)(F)F)cnc3[C@@H](NC(=O)[C@H]3CC[C@H](NC(=O)CCCO[C@H]4CC[C@H](OCCNC(=O)[C@H]5CC(=O)N(C)[C@@H]5c5cccnc5)CC4)CC3)C2)(C(C)C)C1 [Example 15, (2S,3S)-N-(2-(((1R,4S)-4-(4-(((1S,4R)-4-(((S)-6-((1S,3R)-1-isopropyl-3-(((3S,4S)-3-methoxytetrahydro-2H-pyran-4-yl)amino)cyclopentane-1-carbonyl)-3-(trifluoromethyl)-5,6,7,8-tetrahydro-1,6-naphthyridin-8-yl)carbamoyl)cyclohexyl)amino)-4-oxobutoxy)cyclohexyl)oxy)ethyl)-1-methyl-5-oxo-2-(pyridin-3-yl)pyrrolidine-3-carboxamide], the concentration at 48 h [1] was 35 ng/mL and the EC50 [2] was 0.2 nM.
For CO[C@@H]1COCC[C@@H]1N[C@@H]1CC[C@](CCCNC(=O)[C@H]2CC[C@@H](NC(=O)CCOCCOCCOCCNC(=O)[C@H]3CC(=O)N(C)[C@@H]3c3cccnc3)CC2)(C(=O)N2CCc3ncc(C(F)(F)F)cc3C2)C1 [Example 17, (2S,3S)—N-(2-(2-(2-(3-(((1R,4s)-4-((3-((1S,3R)-3-(((3S,4S)-3-Methoxytetrahydro-2H-pyran-4-yl)amino)-1-(3-(trifluoromethyl)-5,6,7,8-tetrahydro-1,6-naphthyridine-6-carbonyl)cyclopentyl)propyl)carbamoyl)cyclohexyl)amino)-3-oxopropoxy)ethoxy)ethoxy)ethyl)-1-methyl-5-oxo-2-(pyridin-3-yl)pyrrolidine-3-carboxamide, Formic acid salt], the concentration at 48 h [1] was 28.3 ng/mL and the EC50 [2] was 6.31 nM.
CO[C@H]1COCC[C@H]1N[C@H]1CC[C@@](CCCNC(=O)[C@H]2CC[C@@H](NC(=O)CCOCCOCCNC(=O)CCNC(=O)[C@H]3CC(=O)N(C)[C@@H]3c3cccnc3)CC2)(C(=O)N2CCc3ncc(C(F)(F)F)cc3C2)C1 [Example 19, (2S,3S)—N-(3-((2-(2-(3-(((1s,4s)-4-((3-((1R,3S)-3-(((3R,4R)-3-Methoxytetrahydro-2H-pyran-4-yl)amino)-1-(3-(trifluoromethyl)-5,6,7,8-tetrahydro-1,6-naphthyridine-6-carbonyl)cyclopentyl)propyl)carbamoyl)cyclohexyl)amino)-3-oxopropoxy)ethoxy)ethyl)amino)-3-oxopropyl)-1-methyl-5-oxo-2-(pyridin-3-yl)pyrrolidine-3-carboxamide] gave a concentration at 48 h [1] of 54.2 ng/mL and an EC50 [2] of 3.16 nM.
With CO[C@@H]1COCC[C@@H]1N[C@@H]1CC[C@](CCCNC(=O)CCOCCOCCO[C@H]2CC[C@H](OCCNC(=O)[C@H]3CC(=O)N(C)[C@@H]3c3cccnc3)CC2)(C(=O)N2CCc3ncc(C(F)(F)F)cc3C2)C1 [Example 20, ((2S,3S)—N-(2-(((1r,4S)-4-(2-(2-(3-((3-((1S,3R)-3-(((3S,4S)-3-Methoxytetrahydro-2H-pyran-4-yl)amino)-1-(3-(trifluoromethyl)-5,6,7,8-tetrahydro-1,6-naphthyridine-6-carbonyl)cyclopentyl)propyl)amino)-3-oxopropoxy)ethoxy)ethoxy)cyclohexyl)oxy)ethyl)-1-methyl-5-oxo-2-(pyridin-3-yl)pyrrolidine-3-carboxamide, Formic acid salt] the concentration at 48 h [1] was 74.6 ng/mL and the EC50 [2] was 3.98 nM.
CO[C@@H]1COCC[C@@H]1N[C@@H]1CC[C@@](C(=O)N2CCc3nc(CCCCOc4cccc(C(=O)NCCOCCOCCOCCOCCOCCOCCOCCOCCOCCNC(=O)[C@H]5CC(=O)N(C)[C@@H]5c5cccnc5)c4)c(C(F)(F)F)cc3C2)(C(C)C)C1 [Example 22, (2S,3S)—N-(1-(3-(4-(6-((1S,3R)-1-Isopropyl-3-(((3S,4S)-3-methoxytetrahydro-2H-pyran-4-yl)amino)cyclopentane-1-carbonyl)-3-(trifluoromethyl)-5,6,7,8-tetrahydro-1,6-naphthyridin-2-yl)butoxy)phenyl)-1-oxo-5,8,11,14,17,20,23,26,29-nonaoxa-2-azahentriacontan-31-yl)-1-methyl-5-oxo-2-(pyridin-3-yl)pyrrolidine-3-carboxamide] showed a concentration at 48 h [1] of 15.5 ng/mL and an EC50 [2] of 1.58 nM.
